The subject of the experiment is Balb/c mice. As to the kind of experiment: Polypeptide chip-based vaccine immunogenicity scoring system. Conditions: for Total single peptide: A*3 + B*2 + C*1; for A: 95 percentile grouping number score / B: Mouse performance score: total score = 5; for C1: #A timing-sequence response peptide fragment set / C2: #B vaccine specificity peptide fragment set / C3: Intersection of A and B / C4: Percentage of the intersection in set B / C: Timing-sequence response and specificity score: value of the whole mix. Format: in vivo. Further details: key to A2: whether the 95 percentile of the last sampling is increased compared with the end point: Y = rise; N = no rise.

Where [1] appears, read: Embodiment III, polypeptide-KLH.
Where [2] appears, read: Embodiment III, polypeptide-KLH, Mix1-10.
Setting [3] is: Embodiment II, mice immunized with Combination 2.

Regarding VNKGEDIQLLKS [SEQ ID NO:27], under setting [1], the “B1: D 0-D 14 95 percentile rise in the number of mice” value (“B1: D 0-D 14 95 percentile rise” below) stood at 3, the “B2: D 0-D 21 95 percentile rise in the number of mice” value (“B2: D 0-D 21 95 percentile rise” below) was 3, the “B3: D 14-D 21 95 percentile rise in the number of mice” value (“B3: D 14-D 21 95 percentile rise” below) is recorded as 1 and the “B4: D 21-D 28 95 percentile rise in the number of mice” value (“B4: D 21-D 28 95 percentile rise” for short) came out at 0. Also, under setting [1], the Total single peptide was 17.4, the “A: 95 percentile grouping number score” value was 4.5, the “B: Mouse performance score” value was found to be 1.7 and the “C1: #A timing-sequence response peptide fragment set” value stood at 133. Further, under setting [1], the “C2: #B vaccine specificity peptide fragment set” value was 431; the “C3: Intersection of A and B” value was 1; the “C4: Percentage of the intersection in set B” value (from here on “C4: Percentage”) amounted to 0.232; the “C: Timing-sequence response and specificity score” value was 0.5. Further, under setting [2], the “A1: difference between a highest median and a D 0 median (95 percentile)” value stood at 0.14; the “A2: whether the 95 percentile of the last sampling is increased compared with the end point” value was “N”.

Regarding KKPASRELKVTF [SEQ ID NO:24], under setting [1], the “B1: D 0-D 14 95 percentile rise” value was 3, the “B2: D 0-D 21 95 percentile rise” value was 3, the “B3: D 14-D 21 95 percentile rise” value is recorded as 1 and the “B4: D 21-D 28 95 percentile rise” value is 2. Under setting [1], the Total single peptide worked out at 18.2, the “A: 95 percentile grouping number score” value worked out at 4.5, the “B: Mouse performance score” value is 2.1 and the “C1: #A timing-sequence response peptide fragment set” value came to 145. For the same sequence, under setting [1], the “C2: #B vaccine specificity peptide fragment set” value stood at 529; the “C3: Intersection of A and B” value stood at 1; the “C4: Percentage” value came to 0.189; the “C: Timing-sequence response and specificity score” value was 0.5. Besides, under setting [2], the “A1: difference between a highest median and a D 0 median (95 percentile)” value was 0.10; the “A2: whether the 95 percentile of the last sampling is increased compared with the end point” value is on record as “Y”.

Turning to YYKKDNSYF (SARS-CoV-2) [SEQ ID NO:25], under setting [1], the “B1: D 0-D 14 95 percentile rise” value is recorded as 2, the “B2: D 0-D 21 95 percentile rise” value worked out at 3, the “B3: D 14-D 21 95 percentile rise” value worked out at 2 and the “B4: D 21-D 28 95 percentile rise” value is on record as 1. In addition, under setting [1], the Total single peptide is listed as 9.1, the “A: 95 percentile grouping number score” value is 1.5, the “B: Mouse performance score” value is reported as 1.8 and the “C1: #A timing-sequence response peptide fragment set” value was 823. Under setting [1], the “C2: #B vaccine specificity peptide fragment set” value is 398; the “C3: Intersection of A and B” value is 7; the “C4: Percentage” value is on record as 1.759; the “C: Timing-sequence response and specificity score” value was 1. In addition, under setting [2], the “A1: difference between a highest median and a D 0 median (95 percentile)” value turned out to be 0.06; the “A2: whether the 95 percentile of the last sampling is increased compared with the end point” value is “N”.

On to GTITVEELKK (SARS-CoV-2) [SEQ ID NO:39], for which, under setting [1], the “B1: D 0-D 14 95 percentile rise” value is given as 1, the “B2: D 0-D 21 95 percentile rise” value is on record as 2, the “B3: D 14-D 21 95 percentile rise” value is listed as 2 and the “B4: D 21-D 28 95 percentile rise” value is listed as 0. Besides, under setting [1], the Total single peptide was 5.7, the “A: 95 percentile grouping number score” value is reported as 1, the “B: Mouse performance score” value was determined as 1.1 and the “C1: #A timing-sequence response peptide fragment set” value is 145. For the same sequence, under setting [1], the “C2: #B vaccine specificity peptide fragment set” value is 529; the “C3: Intersection of A and B” value is reported as 1; the “C4: Percentage” value is on record as 0.189; the “C: Timing-sequence response and specificity score” value was found to be 0.5. For the same sequence, under setting [2], the “A1: difference between a highest median and a D 0 median (95 percentile)” value came out at 0.03; the “A2: whether the 95 percentile of the last sampling is increased compared with the end point” value is reported as “N”.

Regarding DSFKEELDKY (SARS-CoV-2) [SEQ ID NO:33], under setting [1], the “B1: D 0-D 14 95 percentile rise” value worked out at 3, the “B2: D 0-D 21 95 percentile rise” value is listed as 3, the “B3: D 14-D 21 95 percentile rise” value is 1 and the “B4: D 21-D 28 95 percentile rise” value amounted to 1. Besides, under setting [1], the Total single peptide was determined as 18.3, the “A: 95 percentile grouping number score” value was 4.5, the “B: Mouse performance score” value stood at 1.9 and the “C1: #A timing-sequence response peptide fragment set” value was 288. In addition, under setting [1], the “C2: #B vaccine specificity peptide fragment set” value was 268; the “C3: Intersection of A and B” value stood at 4; the “C4: Percentage” value came to 1.493; the “C: Timing-sequence response and specificity score” value turned out to be 1. Further, under setting [2], the “A1: difference between a highest median and a D 0 median (95 percentile)” value worked out at 0.13; the “A2: whether the 95 percentile of the last sampling is increased compared with the end point” value is on record as “N”.

As for ALNTPKDH (SARS-CoV-2) [SEQ ID NO:19], under setting [1], the “B1: D 0-D 14 95 percentile rise” value was found to be 3, the “B2: D 0-D 21 95 percentile rise” value was 3, the “B3: D 14-D 21 95 percentile rise” value came to 0 and the “B4: D 21-D 28 95 percentile rise” value came out at 1. Moreover, under setting [1], the Total single peptide is given as 17.9, the “A: 95 percentile grouping number score” value is on record as 4.5, the “B: Mouse performance score” value amounted to 1.7 and the “C1: #A timing-sequence response peptide fragment set” value amounted to 288. Under setting [1], the “C2: #B vaccine specificity peptide fragment set” value was 268; the “C3: Intersection of A and B” value worked out at 4; the “C4: Percentage” value turned out to be 1.493; the “C: Timing-sequence response and specificity score” value was 1. Besides, under setting [2], the “A1: difference between a highest median and a D 0 median (95 percentile)” value is reported as 0.12; the “A2: whether the 95 percentile of the last sampling is increased compared with the end point” value is given as “N”.

Consider MADSNGTIT (SARS-CoV-2) [SEQ ID NO:16], for which, under “Embodiment II, Combination 2”, the “A2: whether the 95 percentile of the last sampling is increased compared with the end point” value was “Y”, the “B1: D 0-D 14 95 percentile rise” value is 5, the “B2: D 0-D 21 95 percentile rise” value was 1 and the “B3: D 14-D 21 95 percentile rise” value was found to be 0. Where the note is “Embodiment II, Combination 2”, the “B4: D 21-D 28 95 percentile rise” value is listed as 2, the Total single peptide is on record as 19.9, the “A: 95 percentile grouping number score” value was determined as 5 and the “B: Mouse performance score” value is listed as 2.2. For the same sequence, the “A1: difference between a highest median and a D 0 median (95 percentile)” value under setting [3] is reported as 0.2. Also, under setting [1], the “B1: D 0-D 14 95 percentile rise” value was found to be 3, the “B2: D 0-D 21 95 percentile rise” value was determined as 3, the “B3: D 14-D 21 95 percentile rise” value amounted to 1 and the “B4: D 21-D 28 95 percentile rise” value is recorded as 2. Besides, under setting [1], the Total single peptide worked out at 15.2, the “A: 95 percentile grouping number score” value is listed as 3.5, the “B: Mouse performance score” value amounted to 2.1 and the “C1: #A timing-sequence response peptide fragment set” value came out at 511. Besides, under setting [1], the “C2: #B vaccine specificity peptide fragment set” value is recorded as 364; the “C3: Intersection of A and B” value was determined as 1; the “C4: Percentage” value amounted to 0.275; the “C: Timing-sequence response and specificity score” value amounted to 0.5. Under setting [2], the “A1: difference between a highest median and a D 0 median (95 percentile)” value is reported as 0.08; the “A2: whether the 95 percentile of the last sampling is increased compared with the end point” value is on record as “Y”.

As for “KLDNYYKKDNSY (SARS-CoV-2) [SEQ ID NO:32]”, under setting [1], the “B1: D 0-D 14 95 percentile rise” value was determined as 3, the “B2: D 0-D 21 95 percentile rise” value was found to be 3, the “B3: D 14-D 21 95 percentile rise” value turned out to be 1 and the “B4: D 21-D 28 95 percentile rise” value came to 2. For the same sequence, under setting [1], the Total single peptide was 20.2, the “A: 95 percentile grouping number score” value came out at 5, the “B: Mouse performance score” value is given as 2.1 and the “C1: #A timing-sequence response peptide fragment set” value turned out to be 1494. Also, under setting [1], the “C2: #B vaccine specificity peptide fragment set” value came out at 190; the “C3: Intersection of A and B” value turned out to be 2; the “C4: Percentage” value came out at 1.053; the “C: Timing-sequence response and specificity score” value came to 1. Further, under setting [2], the “A1: difference between a highest median and a D 0 median (95 percentile)” value is listed as 0.12; the “A2: whether the 95 percentile of the last sampling is increased compared with the end point” value is recorded as “Y”.

Take GVYYPDKVFR (SARS-CoV-2) [SEQ ID NO:7]: for the setting “Embodiment II, Combination 2”, the “A2: whether the 95 percentile of the last sampling is increased compared with the end point” value was “N”, the “B1: D 0-D 14 95 percentile rise” value was 5, the “B2: D 0-D 21 95 percentile rise” value is given as 0 and the “B3: D 14-D 21 95 percentile rise” value came to 0. In addition, for the setting “Embodiment II, Combination 2”, the “B4: D 21-D 28 95 percentile rise” value is reported as 1, the Total single peptide is reported as 18.9, the “A: 95 percentile grouping number score” value is 5 and the “B: Mouse performance score” value is on record as 1.7. Further, the “A1: difference between a highest median and a D 0 median (95 percentile)” value under setting [3] is given as 0.4. Moreover, under setting [1], the “B1: D 0-D 14 95 percentile rise” value was determined as 3, the “B2: D 0-D 21 95 percentile rise” value is 3, the “B3: D 14-D 21 95 percentile rise” value turned out to be 0 and the “B4: D 21-D 28 95 percentile rise” value turned out to be 0. Under setting [1], the Total single peptide came out at 14, the “A: 95 percentile grouping number score” value was found to be 3.5, the “B: Mouse performance score” value stood at 1.5 and the “C1: #A timing-sequence response peptide fragment set” value was 145. In addition, under setting [1], the “C2: #B vaccine specificity peptide fragment set” value worked out at 529; the “C3: Intersection of A and B” value was determined as 1; the “C4: Percentage” value worked out at 0.189; the “C: Timing-sequence response and specificity score” value was 0.5. In addition, under setting [2], the “A1: difference between a highest median and a D 0 median (95 percentile)” value amounted to 0.09; the “A2: whether the 95 percentile of the last sampling is increased compared with the end point” value is recorded as “N”.

For the sequence IRGGDGKMKD (SARS-CoV-2) [SEQ ID NO:40], under setting [1], the “B1: D 0-D 14 95 percentile rise” value was 3, the “B2: D 0-D 21 95 percentile rise” value turned out to be 3, the “B3: D 14-D 21 95 percentile rise” value turned out to be 2 and the “B4: D 21-D 28 95 percentile rise” value is recorded as 0. Besides, under setting [1], the Total single peptide is 18.3, the “A: 95 percentile grouping number score” value was 4.5, the “B: Mouse performance score” value came out at 1.9 and the “C1: #A timing-sequence response peptide fragment set” value amounted to 823. Under setting [1], the “C2: #B vaccine specificity peptide fragment set” value came to 398; the “C3: Intersection of A and B” value amounted to 7; the “C4: Percentage” value turned out to be 1.759; the “C: Timing-sequence response and specificity score” value is 1. For the same sequence, under setting [2], the “A1: difference between a highest median and a D 0 median (95 percentile)” value is given as 0.11; the “A2: whether the 95 percentile of the last sampling is increased compared with the end point” value was “N”.

(Values after US20230136600A1, “Method and device for screening antigen epitope polypeptide” (priority 2020, published 2023).)
